Measurements from patent publication US8039430B2 (University of Wollongong, priority 2005, dated 2011).
Structures can show the parent of a compound that is named as a salt. Where two headings read alike, the source gives them in different places. Square brackets hold non-standard residues; d marks the D form. Peptide text beside a SMILES is read from it. * marks the point of attachment. Fmoc = O=C(OCC1c2ccccc2-c2ccccc21)*; dAllylGly = C=CC[C@@H](N)C(=O)O; AllylGly = C=CC[C@H](N)C(=O)O

Assays:
[1] = test system: Staphylococcus aureus strain ATCC 6538P; experiment: Antibacterial screening (MIC) of compounds of Example 2, S. aureus, Mueller-Hinton broth; type: cell-based
Experimental: Antibacterial Screening Methodology for Compounds of Example 2
(§1) • All assays used the Staphylococcus aureus strain ATCC 6538P. • Assays described in Chapter 5 additionally used the vancomycin-resistant enterococci and vancomycin-sensitive enterococci strains Ef243, Ef449, Ef820 and Ef487. Culture Media • Mueller-Hinton Broth Medium (MHB): MHB (Oxoid CM405) was prepared with final concentrations of […] MgCl2 and 2 μg/mL CaCl2. Culture medium was pre-warmed for approximately 2-3 h at 37° C. before use. • Mueller-Hinton Agar Medium (MHA): MMB containing 1.5% Agar (Merck Agar 1.01614). Maintenance of Bacteria • From a thawed cryovial, the bacteria was streaked onto MHA and the plate incubated overnight at 37° C. • From this plate, 10 cryovials were prepared by looping several colonies into 0.5 mL of 20% glycerol solution. The cryovials were immediately stored at −140° C. Preparation of Seed Cultures • A cryovial was removed from −140° C. storage and thawed at room temperature. • An MHA plate was streaked with a loopful of bacterial suspension and incubated overnight at 37° C. to create a parent plate (P1). • A daughter plate (D1) was streaked from the parent plate and incubated overnight at 37° C. […] The second parent plate (P2) was used to generate two additional daughter plates using the procedure outlined above before being discarded. • Cryovials were used twice to prepare parent plates (P1 and P2) before being discarded. […] A vancomycin control set (triplicate) and a compound negative control set (triplicate) were also included on each plate (FIG. 1). • The inoculated culture medium was incubated at 37° C. for 30 min, with shaking at 130 rpm. • Using a multichannel pipette, the contents of the first row were mixed before 50 μL was transferred to the second row. The pipette tips were changed and the process repeated by 50 μL of the mixed broth solutions in the second row being transferred to the third row. This process was repeated until the last row contained either the diluted test compound or a control (vancomycin or compound-negative). […] Antibacterial Testing of Compounds of Example 2 Introduction
(§2) The specific testing procedures and protocols are outlined in the section “Antibacterial Screening Methodology for the Compounds of Example 2”.
The antibacterial activity results are measured by minimum inhibitory concentration (MIC), which is the lowest concentration of compound necessary to prevent bacterial growth.

[2] = test system: E.f243; experiment: Antibacterial screening (MIC) of compounds of Example 2, E.f243; type: cell-based, Enterococcus faecium; settings: Enterococcus faecium; Example 2 compounds; enterococci strain E.f243; read-out: Antibacterial activity μg/mL, E.f243
Experimental: as §1, §2
(§3) Vancomycin was used as the standard/control.

[3] = test system: E.f449; experiment: Antibacterial screening (MIC) of compounds of Example 2, E.f449; type: cell-based, Enterococcus faecium; settings: Enterococcus faecium; Example 2 compounds; enterococci strain E.f449; read-out: Antibacterial activity μg/mL, E.f449
Experimental: as §1, §2, §3

[4] = test system: E.f820; experiment: Antibacterial screening (MIC) of compounds of Example 2, E.f820; type: cell-based, Enterrococci faecium; settings: Example 2 compounds, fully vancomycin-resistant strain E.f820; for MIC: read-out: Antibacterial activity μg/mL, E.f820
Experimental: as §1, §2, §3

[5] = test system: E.f987; experiment: Antibacterial screening (MIC) of compounds of Example 2, E.f987; type: cell-based, Enterococcus faecium; settings: Enterococcus faecium; Example 2 compounds; enterococci strain E.f987; read-out: Antibacterial activity μg/mL, E.f987
[6] = Staphylococcus aureus, ATCC6538P, Example 2 compounds (linear cationic peptides), S. aureus, vancomycin-susceptible strain, read-out: Antibacterial activity μg/mL, S.a
[7] = Staphylococcus aureus, ATCC6538P, Example 2 compounds, S. aureus, 18 h, 37° C., read-out: Antibacterial activity (MIC μg/mL)
[8] = Staphylococcus aureus, ATCC6538P, 18 h, read-out: Antibacterial activity (MIC μg/mL)

Row | Compound | MIC [1, 6] [µg/mL] | MIC [2] [µg/mL] | MIC [3] [µg/mL] | MIC [4] [µg/mL] | MIC [5] [µg/mL] | MIC [1, 7] [µg/mL] | further results
1 | C=CC[C@H](NC(=O)[C@@H](CCCNC(=N)N)NC(=O)[C@@H](CCCCN)NC(=O)COc1ccc2ccccc2c1-c1c(OCCC(C)C)ccc2ccccc12)C(=O)OCc1ccccc1.Cl.Cl (atropisomer, axis not shown) [Compound 138] | 3.9 | 31.3 | 15.6 | 15.6 | 31.3 |  | 
2 | C=CCOc1ccc(C[C@H](NC(=O)[C@@H](CCCCN)NC(=O)OCC2c3ccccc3-c3ccccc32)C(=O)OC)cc1.Cl [Compound 73, Methyl(2S,5R)-2-(4-allyloxybenzyl)-9-amino-3-aza-5-(9H-9-fluorenylmethyloxycarboxamido)-4-oxononanoate hydrochloride] |  |  |  |  |  | 31.3 | 
3 | CCCOc1ccc2ccccc2c1-c1c(OCC(=O)N[C@H](CCCCN)C(=O)N[C@H](CCCNC(=N)N)C(=O)N[C@@H](CCC)C(=O)OCc2ccccc2)ccc2ccccc12.Cl.Cl (atropisomer, axis not shown) [Compound 141, Benzyl(2S,5R,8R)-3,6,9-triaza-8-(4-aminobutyl)-5-(3-guanidinopropyl)-4,7,10-trioxo-2-propyl-11-(2-[2′-3-(propyloxy)-{1,1′}-(S)-binaphthalen-2-yloxy])undecanoate] | 3.9 | 31.3 | 31.3 | 31.2 | 62.5 |  | 
4 | C=CCOc1ccc(C[C@H](NC(=O)[C@@H](CCCNC(=N)N)NC(=O)COc2ccc3ccccc3c2-c2c(O)ccc3ccccc23)C(=O)OC)cc1.Cl (atropisomer, axis not shown) [Compound 121, Methyl(2S,5R)-2-allyloxybenzyl-3,6-diaza-8-(2-[2′-hydroxy-{1,1′}-(S)-binaphthalen-2-yloxy])-5-(3-[guanidino]propyl)-4,7-dioxooctanoate] | 7.8 | 125 | 125 | 125 | > 125 |  | 
5 | COC(=O)[C@@H]1CC=CCOc2ccc(cc2)C[C@H](NC(C)=O)C(=O)N[C@H](CCCCN)C(=O)N1 [Compound 12, (7S,10R,13S,4E/Z)-13-Acetamido-10-(4-aminobutyl)-8,11-diaza-7-methoxycarbonyl-2-oxa-9,12-dioxo-1(1,4)phenylenacyclotetradecaphane-4-ene hydrochloride] |  |  |  |  |  |  | MIC [1, 8]: 62.5 µg/mL
6 | C=CC[C@H](NC(=O)[C@@H](CCCNC(=N)N)NC(=O)[C@@H](CCCCN)NC(=O)COc1ccc2ccccc2c1-c1c(O)ccc2ccccc12)C(=O)OCc1ccccc1.Cl.Cl (atropisomer, axis not shown) [Compound 136, Benzyl(2S,5R,8R)-2-allyl-3,6,9-triaza-8-(butylamino)-5-(3-guanidinopropyl)-11-(2-[2′-hydroxy-{1,1′}-(S)-binaphthalen-2-yloxy])-4,7,10-trioxoundecanoate dihydrochloride] | 7.8 | 125 | 62.5 | 62.5 | 125 |  | 
7 | C=CC[C@H](NC(=O)[C@@H](CCCNC(=N)N)NC(=O)[C@@H](CCCCN)NC(=O)COc1ccc2ccccc2c1-c1c(OCCCc2ccccc2)ccc2ccccc12)C(=O)OCc1ccccc1.Cl.Cl (atropisomer, axis not shown) [Compound 137] | 3.9 | 62.5 | 31.3 | 31.3 | 62.5 |  | 
8 | C=CCOc1ccc(C[C@H](NC(C)=O)C(=O)N[C@H](CCCCN)C(=O)N[C@@H](Cc2ccc(OCC=C)cc2)C(=O)OC)cc1.Cl [Compound 83, Methyl(2S,5R,8S)-2,8-di(4-allyloxybenzyl)-5-(4-aminobutyl)-3,6,9-triaza-4,7,10-trioxoundecanoate hydrochloride] |  |  |  |  |  | 125 | 
9 | C=CCOc1ccc(C[C@H](NC(=O)[C@@H](CCCNC(=N)N)NC(=O)COc2ccc3ccccc3c2-c2c(OCC=C)ccc3ccccc23)C(=O)OC)cc1.Cl (atropisomer, axis not shown) [Compound 120] | 3.9 | 62.5 | 62.5 | 62.5 | 62.5 |  | 
10 | C=CC[C@@H](NC(=O)[C@H](CCCNC(=N)N)NC(=O)OCC1c2ccccc2-c2ccccc21)C(=O)OC.Cl [Compound 72, Methyl(2R,5S)-2-allyl-3-aza-5-(9H-9-fluorenylmethyloxycarboxamido)-8-(guanidino)-4-oxooctanoate hydrochloride] (Fmoc-Arg-[dAllylGly]-OMe) |  |  |  |  |  | 125 | 
11 | C=CCOc1ccc2ccccc2c1-c1c(OCC(=O)N[C@H](CCCN)C(=O)Nc2cccc(C(=O)NOCc3ccccc3)c2)ccc2ccccc12.Cl [Compound 161] |  |  |  |  |  |  | Antibacterial activity μg/mL, S.a ([1]; Example 2 compounds (linear cationic peptides), S. aureus, vancomycin-susceptible strain): 15.6 µg/mL; Antibacterial activity μg/mL, E.f820 [4]: 62.5 µg/mL
12 | COC(=O)[C@@H]1CC=CCOc2ccc(cc2)C[C@@H](NC(C)=O)C(=O)N[C@@H](CCCNC(=N)N)C(=O)N1.Cl [Compound 56, (7S,10S,13R,4E/Z)-13-Acetamido-8,11-diaza-10-(3-[amino{imino}methylamino]propyl)-7-methoxycarbonyl-2-oxa-9,12-dioxo-1(1,4)phenylenacyclotetradecaphane-4-ene] |  |  |  |  |  | 125 | 
13 | Methyl(2S,5S)-2-(4-allyloxybenzyl)-3-aza-5-(9H-9-fluorenylmethylcarboxamido)-8-guanidino-4-oxononanoate hydrochloride [Compound 76] |  |  |  |  |  |  | Antibacterial activity (MIC μg/mL) ([1]; Example 2 compounds, S. aureus, 18 h, 37° C.): 15.6 µg/mL
14 | C=CCOc1ccc(C[C@H](NC(C)=O)C(=O)N[C@H](CCCCN)C(=O)N[C@@H](CC=C)C(=O)OC)cc1 [Compound 77, hydrochloride] |  |  |  |  |  |  | MIC [1, 8]: 125 µg/mL
15 | C=CCOc1ccc(C[C@H](NC(=O)[C@@H](CCCNC(=N)N)NC(=O)OCC2c3ccccc3-c3ccccc32)C(=O)OC)cc1.Cl [Compound 75] |  |  |  |  |  | 7.8 | MIC ([1]; Example 2 compounds, S. aureus, best activity named in the text): 7.8 µg/mL
16 | C=CC[C@H](NC(=O)[C@H](CCCNC(=N)N)NC(=O)OCC1c2ccccc2-c2ccccc21)C(=O)OC.Cl [Compound 70, Methyl(2S,5S)-2-allyl-3-aza-5-(9H-9-fluorenylmethyloxycarboxamido)-8-(guanidino)-4-oxooctanoate hydrochloride] (Fmoc-Arg-[AllylGly]-OMe) |  |  |  |  |  | 125 | 
17 | C=CCOc1ccc(C[C@H](NC(=O)[C@H](CCCCN)NC(=O)OCC2c3ccccc3-c3ccccc32)C(=O)OC)cc1.Cl [Compound 74, Methyl(2S,5S)-2-(4-allyloxybenzyl)-9-amino-3-aza-5-(9H-9-fluorenylmethyloxycarboxamido)-4-oxononanoate hydrochloride] |  |  |  |  |  | 15.6 | 
18 | C=CC[C@H](NC(=O)[C@@H](CCCNC(=N)N)NC(=O)OCC1c2ccccc2-c2ccccc21)C(=O)OC.Cl [Compound 69, Methyl(2S,5R)-2-allyl-3-aza-5-(9H-9-fluorenylmethyloxycarboxamido)-8-(guanidino)-4-oxooctanoate hydrochloride] (Fmoc-[dR]-[AllylGly]-OMe) |  |  |  |  |  | 125 | 
19 | C=CC[C@@H](NC(=O)[C@@H](CCCNC(=N)N)NC(=O)OCC1c2ccccc2-c2ccccc21)C(=O)OC.Cl [Compound 71, Methyl(2R,5R)-2-allyl-3-aza-5-(9H-9-fluorenylmethyloxycarboxamido)-8-(guanidino)-4-oxooctanoate hydrochloride] (Fmoc-[dR]-[dAllylGly]-OMe) |  |  |  |  |  | 125 | 
20 | COC(=O)[C@@H]1Cc2ccc(cc2)OCC=CCOc2ccc(cc2)C[C@H](NC(C)=O)C(=O)N[C@H](CCCCN)C(=O)N1.Cl [Compound 65, (10S,13R,16S,4E/Z)-16-Acetamido-13-(4-aminobutyl)-11,14-diaza-10-methoxycarbonyl-2,7-dioxa-12,15-dioxo-1(1,4),8(4,1)-diphenylenecycloheptadecaphane-4-ene] |  |  |  |  |  | 15.6 | 
